This is an account of results in ChEMBL document CHEMBL4414596, “Highly Oxygenated Triterpenoids and Rare Tetraterpenoids from Abies chensiensis and Their Antibacterial Activity” (2019).

The MIC is the lowest concentration that inhibits growth of the organism. Read a high MIC as weaker potency.

The structures appear in SMILES notation. Values after ≈ are worked out from the molar mass of the structure shown. Active and inactive are the calls of the source. The rule behind the calls is not given here.

For test [1], the system named is Bacillus subtilis. The experiment in a line: Antibacterial activity against Bacillus subtilis after 24 hrs by broth microdilution method. It counts as functional. In general terms: Broth dilution looks for growth in wells or tubes with falling amounts of substance.
The test system of a further test is Klebsiella pneumoniae. The experiment in a line: Antibacterial activity against Klebsiella pneumoniae after 24 hrs by broth microdilution method. It counts as functional.
The subject of another test is Staphylococcus aureus. The experiment in a line: Antibacterial activity against Staphylococcus aureus after 24 hrs by broth microdilution method. It counts as functional.
Another test concerns Escherichia coli. Briefly: Antibacterial activity against Escherichia coli after 24 hrs by broth microdilution method. It counts as functional.
In test [2] the test system is Bacillus subtilis. Briefly: Induction of morphological changes in Bacillus subtilis assessed as slender shape at 10 to 40 ug/ml after 24 hrs by SEM analysis. It counts as functional, organism-based.
The test system of test [3] is Bacillus subtilis. The experiment in a line: Antibacterial activity against Bacillus subtilis assessed as growth inhibition at 5 to 80 ug/ml after 2 to 26 hrs relative to control. It counts as functional.
The subject of test [4] is Bacillus subtilis. The experiment in a line: Induction of morphological changes in Bacillus subtilis assessed as wrinkled surface at 10 to 40 ug/ml after 24 hrs by SEM analysis. It counts as functional, organism-based.
Test [5] concerns Bacillus subtilis. Briefly: Induction of morphological changes in Bacillus subtilis assessed as cell disruption at 10 to 40 ug/ml after 24 hrs by SEM analysis. It counts as functional, organism-based.
Test [6] concerns Bacillus subtilis. The experiment in a line: Induction of morphological changes in Bacillus subtilis assessed as irregular size at 10 to 40 ug/ml after 24 hrs by SEM analysis. It counts as functional, organism-based.
In test [7] the test system is Bacillus subtilis. Briefly: Antibacterial activity against Bacillus subtilis assessed as growth inhibition at 5 ug/ml after 10 hrs. It counts as functional, organism-based.
The test system of test [8] is Bacillus subtilis. The experiment in a line: Antibacterial activity against Bacillus subtilis assessed as growth inhibition at 10 to 80 ug/ml measured up to 26 hrs relative to control. It counts as functional.

Regarding `CO[C@@H]1CC[C@]23C[C@]24CC[C@]2(C)[C@@H]([C@H](C)C[C@H](O)/C=C(\C)C(=O)O)CC[C@@]2(C)[C@@H]4CC[C@H]3C1(C)C`, the MIC against Bacillus subtilis [1], against Klebsiella pneumoniae, against Staphylococcus aureus and against Escherichia coli was over 40 µg/mL in each case.

Regarding `CC1=CC(O)(C[C@@H](C)[C@H]2CC[C@@]3(C)C4=C(CC[C@]23C)[C@@]2(C)CCC(=O)C(C)(C)[C@@H]2CC4)OC1=O` (some centres not stated), the MIC in the test on Bacillus subtilis [1], in the test with Klebsiella pneumoniae, in the test on Staphylococcus aureus and against Escherichia coli was over 40 µg/mL throughout.

For `CC1=C[C@@H](C[C@@H](C)[C@H]2C[C@@H](O)[C@@]3(C)[C@@H]4CC[C@H]5C(C)(C)[C@H](O)CC[C@@]56C[C@@]46CC[C@]23C)OC1=O`, the MIC against Bacillus subtilis [1], against Klebsiella pneumoniae, against Staphylococcus aureus and with Escherichia coli was over 40 µg/mL each time.

In the case of `CO[C@@H]1CC[C@]23C[C@]24CC[C@]2(C)[C@@H]([C@H](C)CC/C=C(\C)C(=O)O)C[C@@H](O)[C@@]2(C)[C@@H]4CC[C@H]3C1(C)C`, the MIC in the test on Bacillus subtilis [1] was 20 µg/mL (≈ 41.1 µM); in the test on Klebsiella pneumoniae it was over 40 µg/mL; with Staphylococcus aureus it was over 40 µg/mL; against Escherichia coli, over 40 µg/mL.

With `CC1(C)S[C@@H]2[C@H](NC(=O)[C@H](N)c3ccccc3)C(=O)N2[C@H]1C(=O)O` [AMPICILLIN], the minimal inhibitory concentration (MIC) in the test on Bacillus subtilis [1] is over 40 µg/mL; in the test with Klebsiella pneumoniae, over 40 µg/mL; with Staphylococcus aureus, 40 µg/mL (≈ 114 µM); against Escherichia coli, over 40 µg/mL.

`C/C(=C\CC[C@@H](C)[C@H]1CC[C@@]2(C)[C@@H]3CC[C@H]4C(C)(C)C(=O)CC[C@@]45C[C@@]35CC[C@]12C)C(=O)O` [MANGIFERONIC ACID]: the MIC in the test with Bacillus subtilis [1], in the test on Klebsiella pneumoniae, against Staphylococcus aureus and in the test on Escherichia coli was over 40 µg/mL throughout.

With `C[C@H](CC[C@@H](O)C(C)(C)O)[C@H]1CC[C@@]2(C)[C@@H]3CC[C@H]4C(C)(C)C(=O)CC[C@@]45C[C@@]35CC[C@]12C`, the MIC against Bacillus subtilis [1], with Klebsiella pneumoniae, in the test on Staphylococcus aureus and in the test on Escherichia coli was over 40 µg/mL throughout.

For the molecule `C/C(=C\[C@@H](O)C[C@@H](C)[C@H]1CC[C@@]2(C)[C@@H]3CC[C@H]4C(C)(C)[C@@H](O)CC[C@@]45C[C@@]35CC[C@]12C)C(=O)O`, the MIC against Bacillus subtilis [1] is 20 µg/mL (≈ 42.3 µM); against Klebsiella pneumoniae, over 40 µg/mL; against Staphylococcus aureus, over 40 µg/mL; with Escherichia coli, over 40 µg/mL.

With `C/C(=C\CC[C@@H](C)[C@H]1[C@@H](O)[C@@H](O)[C@@]2(C)[C@@H]3CC[C@H]4C(C)(C)C(=O)CC[C@@]45C[C@@]35CC[C@]12C)C(=O)O`, the MIC against Bacillus subtilis [1], in the test on Klebsiella pneumoniae, against Staphylococcus aureus and against Escherichia coli was over 40 µg/mL each time.

As to `C=C1CC[C@@](C)([C@H](C)CC(=O)C[C@@H](C)C(=O)O)[C@@]12CCC1=C2CC[C@H]2C(C)(C)C(=O)CC[C@]12C`, the MIC in the test with Bacillus subtilis [1] is 10 µg/mL (≈ 21.3 µM); in the test on Klebsiella pneumoniae, over 40 µg/mL; against Staphylococcus aureus, 40 µg/mL (≈ 85.3 µM); against Escherichia coli, over 40 µg/mL.

For the molecule `C/C(=C\CC[C@@H](C)[C@H]1CC[C@@]2(C)[C@@H]3CC[C@H]4C(C)(C)[C@@H](O)CC[C@@]45C[C@@]35CC[C@]12C)C(=O)O` [MANGIFEROLIC ACID], the MIC in the test with Bacillus subtilis [1], in the test with Klebsiella pneumoniae, against Staphylococcus aureus and in the test with Escherichia coli was over 40 µg/mL in each case.

Turning to `CO[C@@H]1CC[C@]23C[C@]24CC[C@]2(C)[C@@H]([C@H](C)CC/C=C(\C)C(=O)O)[C@@H](O)[C@@H](O)[C@@]2(C)[C@@H]4CC[C@H]3C1(C)C`, the MIC in the test on Bacillus subtilis [1] was 20 µg/mL (≈ 39.8 µM); in the test on Klebsiella pneumoniae, over 40 µg/mL; in the test with Staphylococcus aureus, 20 µg/mL (≈ 39.8 µM); in the test with Escherichia coli, over 40 µg/mL.

In the case of `C/C(=C\CC[C@@H](C)[C@H]1C[C@@H](O)[C@@]2(C)[C@@H]3CC[C@H]4C(C)(C)[C@H](O)CC[C@@]45C[C@@]35CC[C@]12C)C(=O)O`, the MIC is 10 µg/mL (≈ 21.2 µM) with Bacillus subtilis [1], over 40 µg/mL with Klebsiella pneumoniae, over 40 µg/mL with Staphylococcus aureus and over 40 µg/mL against Escherichia coli.

For the molecule `CC1=C[C@@H](C[C@@H](C)[C@H]2CC[C@@]3(C)[C@@H]4CC[C@H]5C(C)(C)[C@@H](O)CC[C@@]56C[C@@]46CC[C@]23C)OC1=O`, the MIC in the test on Bacillus subtilis [1], against Klebsiella pneumoniae, with Staphylococcus aureus and in the test on Escherichia coli was over 40 µg/mL throughout.

`C[C@H](CC[C@H](O)[C@](C)(O)CO)[C@H]1CC[C@@]2(C)[C@@H]3CC[C@H]4C(C)(C)[C@@H](O)CC[C@@]45C[C@@]35CC[C@]12C` (relative stereo): the MIC against Bacillus subtilis [1], against Klebsiella pneumoniae, in the test on Staphylococcus aureus and against Escherichia coli was over 40 µg/mL throughout.

On to `CN[C@@H]1[C@H](O[C@H]2[C@H](O[C@H]3[C@H](O)[C@@H](O)[C@H](N=C(N)N)[C@@H](O)[C@@H]3N=C(N)N)O[C@@H](C)[C@]2(O)C=O)O[C@@H](CO)[C@H](O)[C@H]1O` [STREPTOMYCIN], for which the MIC with Klebsiella pneumoniae and in the test with Escherichia coli was 5 µg/mL (≈ 8.6 µM) in each case.

`C[C@H](CC[C@H](O)[C@](C)(O)CO)[C@H]1CC[C@@]2(C)[C@@H]3CC[C@H]4C(C)(C)C(=O)CC[C@@]45C[C@@]35CC[C@]12C` (relative stereo): the minimal inhibitory concentration (MIC) against Bacillus subtilis [1], with Klebsiella pneumoniae, in the test with Staphylococcus aureus and in the test with Escherichia coli was over 40 µg/mL throughout.

On to `C/C(=C\[C@@H](O)C[C@@H](C)[C@H]1CC[C@@]2(C)C3=C(CC[C@]12C)[C@@]1(C)CCC(=O)C(C)(C)[C@@H]1CC3)C(=O)O`, for which the MIC with Bacillus subtilis [1] is 10 µg/mL (≈ 21.2 µM); in the test on Klebsiella pneumoniae, over 40 µg/mL; in the test on Staphylococcus aureus, 40 µg/mL (≈ 85 µM); against Escherichia coli it was over 40 µg/mL.

Take `C/C(=C\CC[C@@H](C)[C@H]1C[C@@H](O)[C@@]2(C)[C@@H]3CC[C@H]4C(C)(C)C(=O)CC[C@@]45C[C@@]35CC[C@]12C)C(=O)O`: the minimum inhibitory concentration (MIC) with Bacillus subtilis [1] was 5 µg/mL (≈ 10.6 µM); against Klebsiella pneumoniae, over 40 µg/mL; in the test on Staphylococcus aureus it was 40 µg/mL (≈ 85 µM); against Escherichia coli, over 40 µg/mL. Besides, the outcome in the test with Bacillus subtilis [2], in the test with Bacillus subtilis [4], in the test with Bacillus subtilis [5] and in the test on Bacillus subtilis [6] was Active. Further, the “growth inhibition (GI)” value in the test with Bacillus subtilis [3] came out at 100%.

For the molecule `C/C(=C\CC[C@@H](C)[C@H]1C[C@@H](O)[C@@]2(C)[C@@H]3CC[C@H]4C(C)(C)[C@@H](O)CC[C@@]45C[C@@]35CC[C@]12C)C(=O)O`, the MIC against Bacillus subtilis [1] was 10 µg/mL (≈ 21.2 µM); in the test on Klebsiella pneumoniae, over 40 µg/mL; with Staphylococcus aureus, 20 µg/mL (≈ 42.3 µM); against Escherichia coli it was over 40 µg/mL. Also, the “growth inhibition (GI)” value in the test with Bacillus subtilis [7] is “Active”. Also, the “growth inhibition (GI)” value with Bacillus subtilis [8] was found to be 100%.

Regarding `C=C1CC[C@@](C)([C@H](C)CC(=O)[C@H]2CC(CCC=C(C)C)=CC[C@]2(C)C(=O)O)[C@@]12CCC1=C2CC[C@H]2C(C)(C)[C@@H](O)CC[C@]12C`, the MIC against Bacillus subtilis [1], with Klebsiella pneumoniae, with Staphylococcus aureus and in the test with Escherichia coli was over 40 µg/mL throughout.

As to `O=C(N[C@H](CO)[C@H](O)c1ccc([N+](=O)[O-])cc1)C(Cl)Cl` [CHLORAMPHENICOL], the MIC against Bacillus subtilis [1] is 5 µg/mL (≈ 15.5 µM); against Klebsiella pneumoniae, over 40 µg/mL; with Staphylococcus aureus, 20 µg/mL (≈ 61.9 µM); in the test with Escherichia coli it was over 40 µg/mL.

For `C/C(=C\CC[C@@H](C)[C@H]1CC[C@@]2(C)[C@@H]3CC[C@H]4C(C)(C)[C@H](O)CC[C@@]45C[C@@]35CC[C@]12C)C(=O)O` [ISOMANGIFEROLIC ACID], the MIC against Bacillus subtilis [1], in the test on Klebsiella pneumoniae, against Staphylococcus aureus and against Escherichia coli was over 40 µg/mL each time.
